Data as given in patent publication US20190322676A1, “CERAMIDE GALACTOSYLTRANSFERASE INHIBITORS FOR THE TREATMENT OF DISEASE” (BioMarin Pharmaceutical Inc., priority 2016, published 2019).
Where a name gives a salt, the structure may show the parent alone.

molecular target: T1, human CGT (ceramide galactosyltransferase), CHO/CGT lysate (Homo sapiens, UniProt Q16880); assay: CGT enzyme assay, RapidFire/MS/MS readout with 0.01% Tween added (Table 1 ranges with two asterisks **); assay type: biochemical; details: CGT enzymatic assay; range with two asterisks (**): RapidFire/MS/MS method with 0.01% Tween added
T1 construct: Full-length human CGT cDNA was cloned into the BamH1/Xho1 site of pcDNA3.1 (+); expressed in transfected cells; host or cells: Chinese hamster ovary (CHO) cells; lysate prepared with M-PER
T1 sequence (Q16880 21-541): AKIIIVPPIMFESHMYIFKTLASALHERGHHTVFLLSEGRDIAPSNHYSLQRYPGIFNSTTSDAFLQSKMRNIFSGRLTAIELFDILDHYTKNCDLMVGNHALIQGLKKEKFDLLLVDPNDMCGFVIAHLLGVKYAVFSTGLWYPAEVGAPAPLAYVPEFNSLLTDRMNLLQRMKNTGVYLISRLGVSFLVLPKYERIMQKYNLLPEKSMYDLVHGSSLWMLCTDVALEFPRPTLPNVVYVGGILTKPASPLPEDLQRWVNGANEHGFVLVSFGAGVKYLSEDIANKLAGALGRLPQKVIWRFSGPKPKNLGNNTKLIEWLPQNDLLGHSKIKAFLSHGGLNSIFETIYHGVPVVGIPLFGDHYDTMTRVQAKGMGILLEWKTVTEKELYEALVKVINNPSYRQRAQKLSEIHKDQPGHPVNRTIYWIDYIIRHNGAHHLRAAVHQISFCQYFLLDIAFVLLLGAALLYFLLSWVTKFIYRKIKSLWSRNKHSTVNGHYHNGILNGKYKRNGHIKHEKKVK
Outline: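 Lysate (4 μg) of CHO cells transfected with full-length human CGT incubated 1 h at 37 °C with compound (0.001–50 μM) in pH 7.2 HEPES buffer with 10 μM C6-NBD-dihydro-ceramide, 17.5 μM UDP-galactose, Mg2+/Mn2+, CHAPS, BSA, 0.5% DMSO; ** set also contained 0.01% Tween 80. Product quantified by RapidFire/MS/MS, normalized to internal standard; IC50 from sigmoidal variable-slope fits.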

| Compound | IC50 [µM] |
| --- | --- |
| NC1CC2CCC(C1)N2C(=O)[C@H](NS(=O)(=O)c1ccc(OCC2CCCCC2)cc1)C(F)(F)c1ccc(Cl)s1 (stereo partly drawn) [Compound 194-2, N-((2S)-3-(3-amino-8-azabicyclo[3.2.1]octan-8-yl)-1-(5-chlorothiophen-2-yl)-1,1-difluoro-3-oxopropan-2-yl)-4-(cyclohexylmethoxy)benzenesulfonamide] | 30 to 100 |
| O=C([C@H](NS(=O)(=O)c1ccc2cc(OC3CCCC3)ccc2c1)C(F)(F)c1ccc(-c2ccc(Cl)cc2)cc1)N1C[C@H]2CNC[C@H]2C1 [Compound 147-2, N—((S)-1-(4′-chloro-[1,1′-biphenyl]-4-yl)-1,1-difluoro-3-((3aR,6aS)-hexahydropyrrolo[3,4-c]pyrrol-2(1H)-yl)-3-oxopropan-2-yl)-6-(cyclopentyloxy)naphthalene-2-sulfonamide trifluoroacetate] | 10 to 30 |
| NC1CC2CCC(C1)N2C(=O)[C@H](NS(=O)(=O)c1ccc2cc(OC3CC3)ccc2c1)C(F)(F)c1ccc(Br)cc1 (stereo partly drawn) [Compound 177-2, N-((2S)-3-(3-amino-8-azabicyclo[3.2.1]octan-8-yl)-1-(4-bromophenyl)-1,1-difluoro-3-oxopropan-2-yl)-6-cyclopropoxynaphthalene-2-sulfonamide trifluoroacetate] | 10 to 30 |
| NC1CC2CCC(C1)N2C(=O)[C@H](NC(=O)[C@@H](O)c1ccc(OCC2CCCCC2)cc1)C(F)(F)c1ccc(-c2ccc(Cl)cc2)cc1 (stereo partly drawn) [Compound 152-2, (2S)—N-((2S)-3-(3-amino-8-azabicyclo[3.2.1]octan-8-yl)-1-(4′-chloro-[1,1′-biphenyl]-4-yl)-1,1-difluoro-3-oxopropan-2-yl)-2-(4-(cyclohexylmethoxy)phenyl)-2-hydroxyacetamide trifluoroacetate] | 30 to 100 |
| O=C([C@H](NS(=O)(=O)c1ccc(OCC2CCCCC2)cc1)C(F)(F)c1ccc(-c2ccc(Cl)cc2)cc1)N1CCNCC1 [Compound 151-2, (S)—N-(1-(4′-chloro-[1,1′-biphenyl]-4-yl)-1,1-difluoro-3-oxo-3-(piperazin-1-yl)propan-2-yl)-4-(cyclohexylmethoxy) benzenesulfonamide trifluoroacetate] | 30 to 100 |
| COc1cc(C(F)(F)[C@H](NS(=O)(=O)c2ccc(OCC3CCCCC3)cc2)C(=O)N2CCC(N)CC2)ccc1Br [Compound 145-1, (R)—N-(3-(4-aminopiperidin-1-yl)-1-(4-bromo-3-methoxyphenyl)-1,1-difluoro-3-oxopropan-2-yl)-4-(cyclohexylmethoxy)benzenesulfonamide trifluoroacetate] | < 1 |
| N[C@H]1CCN(C(=O)[C@@H](NS(=O)(=O)c2ccc3cc(OC4CCCC4)ccc3c2)C(F)(F)c2ccc(-c3ccc(Cl)cc3)cc2)C1 [Compound 148-1, N—((R)-3-((S)-3-aminopyrrolidin-1-yl)-1-(4′-chloro-[1,1′-biphenyl]-4-yl)-1,1-difluoro-3-oxopropan-2-yl)-6-(cyclopentyloxy)naphthalene-2-sulfonamide trifluoroacetate] | 1 to 10 |
| N[C@H]1[C@@H]2CC[C@H]1CN(C(=O)[C@H](NS(=O)(=O)c1ccc3cc(OC4CCCC4)ccc3c1)C(F)(F)c1ccc(Cl)cc1)C2 [Compound 150-2, N—((S)-3-((1R,5S,8S)-8-amino-3-azabicyclo[3.2.1]octan-3-yl)-1-(4-chlorophenyl)-1,1-difluoro-3-oxopropan-2-yl)-6-(cyclopentyloxy)naphthalene-2-sulfonamide trifluoroacetate] | 1 to 10 |
| NC1CC2CCC(C1)N2C(=O)[C@@H](NC(=O)[C@H](O)c1ccc2cc(OC3CCCC3)ccc2c1)C(F)(F)c1ccc2cc(Br)ccc2c1 (stereo partly drawn) [Compound 158-1, (2R)—N-((2R)-3-(3-amino-8-azabicyclo[3.2.1]octan-8-yl)-1-(6-bromonaphthalen-2-yl)-1,1-difluoro-3-oxopropan-2-yl)-2-(6-(cyclopentyloxy)naphthalen-2-yl)-2-hydroxyacetamide trifluoroacetate] | 1 to 10 |

Second part, the molecule after the results:

| IC50 [µM] | Compound |
| --- | --- |
| 1 to 10 | N[C@H]1CCN(C(=O)[C@@H](NS(=O)(=O)c2ccc3cc(OC4CCCC4)ccc3c2)C(F)(F)c2ccc(-c3ccc(Cl)cc3)cc2)C[C@@H]1F [Compound 178-1, N—((R)-3-((3 S,4S)-4-amino-3-fluoropiperidin-1-yl)-1-(4′-chloro-[1,1′-biphenyl]-4-yl)-1,1-difluoro-3-oxopropan-2-yl)-6-(cyclopentyloxy)naphthalene-2-sulfonamide] |
| 1 to 10 | N[C@H]1CCN(C(=O)[C@@H](NS(=O)(=O)c2ccc(OCC3CCCCC3)cc2)C(F)(F)c2ccc(Cl)cc2)C1 [Compound 186-1, N-((R)-3-((S)-3-aminopyrrolidin-1-yl)-1-(4-chlorophenyl)-1,1-difluoro-3-oxopropan-2-yl)-4-(cyclohexylmethoxy)benzenesulfonamide] |
| 1 to 10 | CCOc1cc(-c2ccc(C(F)(F)[C@H](NS(=O)(=O)c3ccc4cc(OC5CCCC5)ccc4c3)C(=O)N3CCC(N)CC3)cc2)ccc1Cl [Compound 154-1, (R)—N-(3-(4-aminopiperidin-1-yl)-1-(4′-chloro-3′-ethoxy-[1,1′-biphenyl]-4-yl)-1,1-difluoro-3-oxopropan-2-yl)-6-(cyclopentyloxy)naphthalene-2-sulfonamide trifluoroacetate] |
| < 1 | O=C([C@@H](NS(=O)(=O)c1ccc2cc(OC3CCCC3)ccc2c1)C(F)(F)c1ccc(-c2ccc(Cl)cc2)cc1)N1Cc2cn[nH]c2C1 [Compound 176-1, (R)—N-(1-(4′-chloro-[1,1′-biphenyl]-4-yl)-3-(4,6-dihydropyrrolo[3,4-c]pyrazol-5(1H)-yl)-1,1-difluoro-3-oxopropan-2-yl)-6-(cyclopentyloxy)naphthalene-2-sulfonamide] |
| 30 to 100 | O=C([C@H](NS(=O)(=O)c1ccc2cc(OC3CCCC3)ccc2c1)C(F)(F)c1ccc(-c2ccc(Cl)cc2)cc1)N1Cc2cn[nH]c2C1 [Compound 176-2, (S)—N-(1-(4′-chloro-[1,1′-biphenyl]-4-yl)-3-(4,6-dihydropyrrolo[3,4-c]pyrazol-5(1H)-yl)-1,1-difluoro-3-oxopropan-2-yl)-6-(cyclopentyloxy)naphthalene-2-sulfonamide] |
| 30 to 100 | O=C([C@H](NS(=O)(=O)c1ccc2cc(OC3CCCC3)ccc2c1)C(F)(F)c1ccc(-c2ccc(Cl)cc2)cc1)N1CCNC2(CC2)C1 [Compound 188-2, (S)-N-(1-(4′-chloro-[1,1′-biphenyl]-4-yl)-1,1-difluoro-3-oxo-3-(4,7-diazaspiro[2.5]octan-7-yl)propan-2-yl)-6-(cyclopentyloxy)naphthalene-2-sulfonamide] |
| < 1 | N[C@H]1[C@@H]2CC[C@H]1CN(C(=O)[C@@H](NS(=O)(=O)c1ccc(OCC3CCCCC3)cc1)C(F)(F)c1ccc(-c3ccc(Cl)cc3)cc1)C2 [Compound 183-1, N-((R)-3-((1R,5S,8R)-8-amino-3-azabicyclo[3.2.1]octan-3-yl)-1-(4′-chloro-[1,1′-biphenyl]-4-yl)-1,1-difluoro-3-oxopropan-2-yl)-4-(cyclohexylmethoxy)benzenesulfonamide] |
| 1 to 10 | O=C([C@@H](NS(=O)(=O)c1ccc2cc(OC3CCCC3)ccc2c1)C(F)(F)c1ccc(-c2ccc(Cl)cc2)cc1)N1CCNC2(CC2)C1 [Compound 188-1, (R)-N-(1-(4′-chloro-[1,1′-biphenyl]-4-yl)-1,1-difluoro-3-oxo-3-(4,7-diazaspiro[2.5]octan-7-yl)propan-2-yl)-6-(cyclopentyloxy)naphthalene-2-sulfonamide] |
| 30 to 100 | O=C([C@H](NS(=O)(=O)c1ccc2cc(OC3CCCC3)ccc2c1)C(F)(F)c1ccc(-c2ccc(Cl)cc2)cc1)N1CC[C@H]2CNC[C@H]21 [Compound 192-4, N-((S)-1-(4′-chloro-[1,1′-biphenyl]-4-yl)-1,1-difluoro-3-((3aS,6aS)-hexahydropyrrolo[3,4-b]pyrrol-1(2H)-yl)-3-oxopropan-2-yl)-6-(cyclopentyloxy)naphthalene-2-sulfonamide] |
| 1 to 10 | NC1CCN(C(=O)[C@H](NS(=O)(=O)c2ccc(OCC3CCCCC3)cc2)C(F)(F)c2cccc(-c3ccc(Cl)cc3)c2)CC1 [Compound 181-2, (S)—N-(3-(4-aminopiperidin-1-yl)-1-(4′-chloro-[1,1′-biphenyl]-3-yl)-1,1-difluoro-3-oxopropan-2-yl)-4-(cyclohexylmethoxy) benzenesulfonamide trifluoroacetate] |
| 1 to 10 | NC1CCN(C(=O)[C@@H](NC(=O)[C@H](O)c2ccc3cc(OC4CCCC4)ccc3c2)C(F)(F)c2ccc(-c3ccc(Cl)cc3)cc2)CC1 [Compound 159-1, (R)—N—((R)-3-(4-aminopiperidin-1-yl)-1-(4′-chloro-[1,1′-biphenyl]-4-yl)-1,1-difluoro-3-oxopropan-2-yl)-2-(6-(cyclopentyloxy)naphthalen-2-yl)-2-hydroxyacetamide trifluoroacetate] |
